Source: article PMC5479848, “Drug-Repositioning Screening for Keap1-Nrf2 Binding Inhibitors using Fluorescence Correlation Spectroscopy” (Scientific Reports, 2017)

Legend:
Keap1 = target: T1, Keap1 (Homo sapiens, UniProt Q14145); assay: FCS displacement of TAMRA-Nrf2 ETGE peptide from purified GST-Keap1-DGR; supported by co-IP; type: binding
T1 construct: GST-Keap1-DGR, residues 315–598 (DGR domain)

[1] = target: Nrf2 8mer peptide (Homo sapiens); assay: SPR; conditions: cited from earlier work
[2] = target: Nrf2 9mer peptide, FITC-labeled (Homo sapiens) (UniProt Q16236); assay: FP; conditions: cited from earlier work
Nrf2 9mer peptide, FITC-labeled (Homo sapiens), sequence (Q16236 whole entry): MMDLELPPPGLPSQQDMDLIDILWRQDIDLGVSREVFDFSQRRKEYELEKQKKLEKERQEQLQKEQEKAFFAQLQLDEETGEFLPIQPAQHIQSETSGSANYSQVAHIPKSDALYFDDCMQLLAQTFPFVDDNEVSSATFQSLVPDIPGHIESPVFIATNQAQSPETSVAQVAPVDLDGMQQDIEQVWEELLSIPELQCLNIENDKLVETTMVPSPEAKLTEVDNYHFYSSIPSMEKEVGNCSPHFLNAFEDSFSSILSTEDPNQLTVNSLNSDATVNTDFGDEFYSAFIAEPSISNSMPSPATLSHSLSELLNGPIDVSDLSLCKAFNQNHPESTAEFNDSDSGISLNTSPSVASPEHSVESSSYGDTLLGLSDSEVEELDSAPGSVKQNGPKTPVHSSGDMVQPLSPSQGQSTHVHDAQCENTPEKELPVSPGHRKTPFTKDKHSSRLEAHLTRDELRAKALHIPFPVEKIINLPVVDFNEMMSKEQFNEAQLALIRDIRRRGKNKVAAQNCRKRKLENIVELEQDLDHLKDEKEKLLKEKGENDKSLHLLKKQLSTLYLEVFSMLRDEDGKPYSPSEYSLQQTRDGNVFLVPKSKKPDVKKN

Keap1 (from UniProt Q14145), sequence (Q14145 whole entry): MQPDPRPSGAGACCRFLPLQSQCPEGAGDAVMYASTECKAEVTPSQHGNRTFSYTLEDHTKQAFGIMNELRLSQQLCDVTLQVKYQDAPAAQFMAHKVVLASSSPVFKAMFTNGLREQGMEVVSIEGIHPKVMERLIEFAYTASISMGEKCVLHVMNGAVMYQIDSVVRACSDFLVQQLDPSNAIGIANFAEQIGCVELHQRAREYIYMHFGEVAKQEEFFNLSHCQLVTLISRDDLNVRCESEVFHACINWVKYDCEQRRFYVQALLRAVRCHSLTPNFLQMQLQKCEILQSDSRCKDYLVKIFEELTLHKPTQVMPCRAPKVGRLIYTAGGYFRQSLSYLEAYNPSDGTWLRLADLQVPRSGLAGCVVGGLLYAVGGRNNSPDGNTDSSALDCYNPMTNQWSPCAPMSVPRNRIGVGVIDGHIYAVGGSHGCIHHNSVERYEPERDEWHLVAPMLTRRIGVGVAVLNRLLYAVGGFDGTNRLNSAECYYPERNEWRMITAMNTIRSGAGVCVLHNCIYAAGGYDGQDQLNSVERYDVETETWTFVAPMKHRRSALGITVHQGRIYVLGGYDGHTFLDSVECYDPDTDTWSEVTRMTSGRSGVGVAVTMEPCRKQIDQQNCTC
T1 sequence (Q14145 315-598): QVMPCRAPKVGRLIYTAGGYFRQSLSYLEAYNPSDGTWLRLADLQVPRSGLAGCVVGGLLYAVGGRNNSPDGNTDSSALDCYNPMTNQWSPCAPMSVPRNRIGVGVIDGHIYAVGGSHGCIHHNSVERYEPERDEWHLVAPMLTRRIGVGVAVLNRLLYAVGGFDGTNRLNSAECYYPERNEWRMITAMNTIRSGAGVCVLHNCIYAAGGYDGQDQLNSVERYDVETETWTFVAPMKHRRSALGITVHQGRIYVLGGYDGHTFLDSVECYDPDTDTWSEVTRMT

| Compound | IC50 (Keap1) [µM] | Kd [1] [µM] | Kd [2] [µM] |
| --- | --- | --- | --- |
| O=C1C=Cc2cc(Br)ccc2C1=O [bonaphton, 6-bromo-1,2-naphthoquinone] | 37.9 | – | – |
| Keap1 (from UniProt Q14145) | – | > 1 | 0.0651 |
| chlorophyllin sodium copper salt | 35.7 | – | – |
